Source: patent US20050186172A1, “Cosmetic composition capable of fighting against skin aging” (Laboratoires Clarins, a corporation of France, priority 2002, published 2005)

Test system: glycation cross-linking between bovine albumin and glucose
Assay: Anti-glycation activity: fluorescence of bovine albumin-glucose adduct (AGE) after incubation
Type: biochemical
Conditions: 10 mM, 8 days 37° C.
Method: The effect of the extract of Diospyros kaki was studied in vitro on a model based on the measurement of the formation of the derivatives of the glycation reaction between lysine and glucose 6-phosphate. Certain of these derivatives (AGE) are fluorescent. The reaction was measured after […] of incubation.
A reference molecule was tested in parallel: aminoguanidine.
The test system is the reaction mixture containing bovine albumin ([…]) and glucose (500 mM) in a phosphate buffer (0.2 M, pH=7.4.).
The products were mixed with the test system in sterile tubes; the tubes were covered with aluminum foil (the reaction must take place shielded from light).
For the experimental conditions in which certain reagents or products are not present, the volume of the QSP tube should be completed with MilliQ water.
After having sealed the openings of the tubes with parafilm (the reaction must take place without oxygen), the different reaction media were placed in a dry oven at 37° C. for 8 days.
After 8 days of incubation, 100 μl was collected from each tube and transferred to a 96-well black plate.
The fluorescence was then read using FLUOstar (BMG) (excitation at 355 nm, emission at 460 nm). The results are expressed in arbitrary fluorescence units.
The relative fluorescence for the “product+bovine albumin” (=interference) is to be subtracted from the “product+bovine albumin+glucose” data.
After 8 days of incubation of bovine albumin with an overcharge of glucose, the formation of glycation cross-linking was seen. It was evaluated by taking advantage of the fluorescence properties of the bovine albumin-glucose adduct.

With `N=C(N)NN` [Aminoguanidine, aminoguanidine] the “% inhibition of the glycation” value (BSA + glucose) was 100%, the Intensity of fluorescence (BSA + glucose, ex 355 nm / em 460 nm) was 13,011.5 arbitrary units and the “Intensity of real fluorescence” value (interference subtracted) was 0 arbitrary units.
